Source: the NIST ThermoML archive (doi:10.1016/j.jct.2011.06.020)

Assay: xn = mol fraction of the nth substance listed
Details: for surface tension liquid-gas: Tensiometer with plate; for viscosity / mass density: 101 kPa, Liquid; for viscosity: Capillary tube (Ostwald / Ubbelohde) method; for mass density: Vibrating tube method

CN1CCNCC1 [N-methylpiperazine] + O
Details | mass density [kg/m3] | surface tension liquid-gas [mN/m] | viscosity [mPa·s]
293.15 K, x1 = 0.1 | – | 47.64 | –
293.15 K, x1 = 0.1998 | – | 43.4 | –
293.15 K, x1 = 0.2994 | – | 38.68 | –
293.15 K, x1 = 0.4073 | – | 35.89 | –
293.15 K, x1 = 0.4983 | – | 34.37 | –
293.15 K, x1 = 0.5934 | – | 33.18 | –
293.15 K, x1 = 0.6979 | – | 32.35 | –
293.15 K, x1 = 0.7994 | – | 31.68 | –
293.15 K, x1 = 0.8978 | – | 31.15 | –
293.15 K, x1 = 1 | – | 30.65 | –
298.15 K, x1 = 0.0521 | 1001.67 | – | 3.324
298.15 K, x1 = 0.0725 | 1005.26 | – | 5.564
298.15 K, x1 = 0.1039 | 1009.54 | – | 10.76
298.15 K, x1 = 0.2091 | 1001.33 | – | 35.24
298.15 K, x1 = 0.3101 | 981.31 | – | 36.42
298.15 K, x1 = 0.4096 | 962.21 | – | 23.48
298.15 K, x1 = 0.5109 | 946.41 | – | 13.36
298.15 K, x1 = 0.608 | 933.25 | – | 7.957
298.15 K, x1 = 0.7065 | 922.31 | – | 4.893
298.15 K, x1 = 0.8069 | 913.72 | – | 3.383
298.15 K, x1 = 0.8819 | 906.76 | – | 2.552
298.15 K, x1 = 1 | 898.81 | – | 1.87
303.15 K, x1 = 0.0521 | 999.31 | – | 2.752
303.15 K, x1 = 0.0725 | 1002.36 | – | 4.48
303.15 K, x1 = 0.1 | – | 46.73 | –
303.15 K, x1 = 0.1039 | 1005.87 | – | 8.223
303.15 K, x1 = 0.1998 | – | 42.1 | –
303.15 K, x1 = 0.2091 | 996.94 | – | 25.01
303.15 K, x1 = 0.2994 | – | 38.07 | –
303.15 K, x1 = 0.3101 | 976.94 | – | 25.74
303.15 K, x1 = 0.4073 | – | 35.25 | –
303.15 K, x1 = 0.4096 | 957.88 | – | 17.12
303.15 K, x1 = 0.4983 | – | 33.82 | –
303.15 K, x1 = 0.5109 | 942.03 | – | 10.17
303.15 K, x1 = 0.5934 | – | 32.73 | –
303.15 K, x1 = 0.608 | 928.88 | – | 6.246
303.15 K, x1 = 0.6979 | – | 31.78 | –
303.15 K, x1 = 0.7065 | 917.92 | – | 4.048
303.15 K, x1 = 0.7994 | – | 31.16 | –
303.15 K, x1 = 0.8069 | 909.33 | – | 2.835
303.15 K, x1 = 0.8819 | 902.37 | – | 2.188
303.15 K, x1 = 0.8978 | – | 30.7 | –
303.15 K, x1 = 1 | 894.43 | 30.34 | 1.618
308.15 K, x1 = 0.1 | – | 45.72 | –
308.15 K, x1 = 0.1998 | – | 40.74 | –
308.15 K, x1 = 0.2994 | – | 37.57 | –
308.15 K, x1 = 0.4073 | – | 34.71 | –
308.15 K, x1 = 0.4983 | – | 33.32 | –
308.15 K, x1 = 0.5934 | – | 32.06 | –
308.15 K, x1 = 0.6979 | – | 31.25 | –
308.15 K, x1 = 0.7994 | – | 30.8 | –
308.15 K, x1 = 0.8978 | – | 30.2 | –
308.15 K, x1 = 1 | – | 29.86 | –
313.15 K, x1 = 0.0521 | 994.17 | – | 1.987
313.15 K, x1 = 0.0725 | 996.21 | – | 3.048
313.15 K, x1 = 0.1 | – | 44.4 | –
313.15 K, x1 = 0.1039 | 998.34 | – | 5.183
313.15 K, x1 = 0.1998 | – | 39.61 | –
313.15 K, x1 = 0.2091 | 988.01 | – | 13.66
313.15 K, x1 = 0.2994 | – | 36.37 | –
313.15 K, x1 = 0.3101 | 968.03 | – | 13.97
313.15 K, x1 = 0.4073 | – | 34.03 | –
313.15 K, x1 = 0.4096 | 949.09 | – | 9.817
313.15 K, x1 = 0.4983 | – | 32.66 | –
313.15 K, x1 = 0.5109 | 933.18 | – | 6.25
313.15 K, x1 = 0.5934 | – | 31.58 | –
313.15 K, x1 = 0.608 | 920.04 | – | 4.118
313.15 K, x1 = 0.6979 | – | 30.76 | –
313.15 K, x1 = 0.7065 | 909.07 | – | 2.846
313.15 K, x1 = 0.7994 | – | 30.4 | –
313.15 K, x1 = 0.8069 | 900.47 | – | 2.091
313.15 K, x1 = 0.8819 | 893.54 | – | 1.673
313.15 K, x1 = 0.8978 | – | 29.71 | –
313.15 K, x1 = 1 | 885.62 | 29.23 | 1.302
318.15 K, x1 = 0.1 | – | 43.02 | –
318.15 K, x1 = 0.1998 | – | 38.31 | –
318.15 K, x1 = 0.2994 | – | 35.73 | –
318.15 K, x1 = 0.4073 | – | 33.43 | –
318.15 K, x1 = 0.4983 | – | 32.08 | –
318.15 K, x1 = 0.5934 | – | 30.99 | –
318.15 K, x1 = 0.6979 | – | 30.23 | –
318.15 K, x1 = 0.7994 | – | 29.83 | –
318.15 K, x1 = 0.8978 | – | 29.14 | –
318.15 K, x1 = 1 | – | 28.78 | –
323.15 K, x1 = 0.1 | – | 41.72 | –
323.15 K, x1 = 0.1998 | – | 37.83 | –
323.15 K, x1 = 0.2994 | – | 34.87 | –
323.15 K, x1 = 0.4073 | – | 32.92 | –
323.15 K, x1 = 0.4983 | – | 31.67 | –
323.15 K, x1 = 0.5934 | – | 30.57 | –
323.15 K, x1 = 0.6979 | – | 29.67 | –
323.15 K, x1 = 0.7994 | – | 29.24 | –
323.15 K, x1 = 0.8978 | – | 28.53 | –
323.15 K, x1 = 1 | – | 28.11 | –
325.15 K, x1 = 0.0521 | 988.47 | – | 1.5
325.15 K, x1 = 0.0725 | 989.64 | – | 2.188
325.15 K, x1 = 0.1039 | 990.55 | – | –
325.15 K, x1 = 0.2091 | 978.98 | – | 8.128
325.15 K, x1 = 0.3101 | 958.91 | – | 8.263
325.15 K, x1 = 0.4096 | 940.1 | – | –
325.15 K, x1 = 0.5109 | 924.16 | – | 4.171
325.15 K, x1 = 0.608 | 911.05 | – | 2.876
325.15 K, x1 = 0.7065 | 900.09 | – | 2.076
325.15 K, x1 = 0.8069 | 891.49 | – | 1.607
325.15 K, x1 = 0.8819 | 884.6 | – | 1.324
325.15 K, x1 = 1 | 876.71 | – | 1.065
333.15 K, x1 = 0.0521 | 982.25 | – | 1.18
333.15 K, x1 = 0.0725 | 982.66 | – | 1.651
333.15 K, x1 = 0.1 | – | 39.98 | –
333.15 K, x1 = 0.1039 | 982.5 | – | 2.474
333.15 K, x1 = 0.1998 | – | 36.47 | –
333.15 K, x1 = 0.2091 | 969.64 | – | 5.188
333.15 K, x1 = 0.2994 | – | 33.61 | –
333.15 K, x1 = 0.3101 | 949.58 | – | 5.244
333.15 K, x1 = 0.4073 | – | 31.68 | –
333.15 K, x1 = 0.4096 | 930.91 | – | 4.021
333.15 K, x1 = 0.4983 | – | 30.32 | –
333.15 K, x1 = 0.5109 | 914.98 | – | 2.894
333.15 K, x1 = 0.5934 | – | 29.76 | –
333.15 K, x1 = 0.608 | 901.91 | – | 2.109
333.15 K, x1 = 0.6979 | – | 28.76 | –
333.15 K, x1 = 0.7065 | 891 | – | 1.592
333.15 K, x1 = 0.7994 | – | 27.93 | –
333.15 K, x1 = 0.8069 | 882.42 | – | 1.277
333.15 K, x1 = 0.8819 | 875.57 | – | 1.09
333.15 K, x1 = 0.8978 | – | 27.7 | –
333.15 K, x1 = 1 | 867.73 | 27.17 | 0.9
343.15 K, x1 = 0.0521 | 975.55 | – | 0.942
343.15 K, x1 = 0.0725 | 975.29 | – | 1.281
343.15 K, x1 = 0.1039 | 974.18 | – | 1.827
343.15 K, x1 = 0.2091 | 960.1 | – | 3.514
343.15 K, x1 = 0.3101 | 940.04 | – | 3.54
343.15 K, x1 = 0.4096 | 921.51 | – | 2.81
343.15 K, x1 = 0.5109 | 905.65 | – | 2.12
343.15 K, x1 = 0.608 | 892.65 | – | 1.607
343.15 K, x1 = 0.7065 | 881.79 | – | 1.264
343.15 K, x1 = 0.8069 | 873.22 | – | 1.074
343.15 K, x1 = 0.8819 | 866.45 | – | 0.906
343.15 K, x1 = 1 | 858.66 | – | 0.768
